Laboratory results: patent US20100216249A1, “DNA-Based Biosensors” (ISIS INNOVATION LIMITED, priority 2007, published 2010)
pKd: −log10 of the molar value.

What was measured:
lacR = lacR (Escherichia coli, UniProt P03023); experiment: sensing a lactose analog (IPTG) using DNA biosensors (lacR-dependent DNA coincidence); format: binding, bacteria
Text: (§1) An example of sensing the concentration of a small molecule using protein-dependent DNA coincidence. In the absence (or low concentration) of the molecule to be sensed (yellow triangle), the transcription factor binds to DNA with high affinity and gives rise to DNA coincidence detected by single-molecule fluorescence.
FIG. 16. Sensing a lactose analog (IPTG) using DNA biosensors. […] A plot of the number of molecules with intermediate stoichiometry can be used as a calibration curve to identify the concentration of the small molecule, provided that the concentration is not much higher or much lower than the Kd for the interaction of the small molecule with the DNA-binding protein.

lac repressor (lacR) = lac repressor (lacR) (Escherichia coli, UniProt P03023); experiment: Sensing a lactose analog (IPTG) using DNA biosensors: IPTG-dependent loss of lacR-assembled full DNA site, detected by single-molecule fluorescence (protein-dependent DNA coincidence); format: binding, bacteria; conditions: FIG. 16; IPTG interaction with lacR (tetrameric bacterial repressor); fraction of bursts with intermediate stoichiometry vs IPTG concentration
Text: For the purposes of our assay, the fluorophores can be placed far from the protein binding site (as long as the fluorophores are spaced by less than approximately 200 base pairs); as such, there is no perturbation of protein-DNA binding and no information about the exact structure of the protein-DNA complex is necessary. The concept is described in FIG. 3. In the absence of a DNA-binding protein, for example, a dimeric protein, such as a dimeric transcription factor, two DNA fragments with short and complementary single-stranded DNA tails diffuse independently in solution (top panel). In the presence of a DNA-binding protein that binds specifically to the fully assembled DNA site, the two DNA fragments diffuse as a single molecular complex (a 1:1 donor-acceptor species); such a species can be easily differentiated from the free DNA half-sites and can be counted, giving information about the concentration of the specific DNA-binding protein. […]
as §1, with “fluorescence. […]” for “fluorescence.”

lacR, sequence (P03023 whole entry): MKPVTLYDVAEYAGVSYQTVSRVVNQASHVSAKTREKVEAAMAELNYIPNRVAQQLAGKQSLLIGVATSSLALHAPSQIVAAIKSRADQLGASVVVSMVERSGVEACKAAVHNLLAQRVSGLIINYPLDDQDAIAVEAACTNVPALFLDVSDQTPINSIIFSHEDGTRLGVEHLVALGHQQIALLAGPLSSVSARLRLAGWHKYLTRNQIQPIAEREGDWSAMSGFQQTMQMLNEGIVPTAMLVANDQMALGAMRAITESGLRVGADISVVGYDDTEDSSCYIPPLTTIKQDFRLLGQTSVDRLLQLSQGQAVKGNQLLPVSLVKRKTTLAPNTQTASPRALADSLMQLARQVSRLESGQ
lac repressor (lacR), sequence (P03023 whole entry): as above

`CC(C)S[C@@H]1O[C@H](CO)[C@H](O)[C@H](O)[C@H]1O` [IPTG] was tested, and the “lacR assembly of the full DNA site” value (lacR; high concentration of IPTG, relative fraction of bursts with intermediate stoichiometry decreases) was “does not assemble the full site”, the “lacR assembly of the full DNA site” value (lacR; low concentration of IPTG, relative fraction of bursts with intermediate stoichiometry increases) was “does bind and assemble the full site” and the pKd (lac repressor (lacR)) was 5.70 to 6.00.
